Key:
caspase-3, PARP = test: Western blot of active caspase-3 and PARP in T-Rex-293 lysates; format: cell-based, human
Experimental: Western blot analysis and immunofluorescence were performed as previously described (Perez, D., and White, E. J. Cell Biol. 141: 1255-1266 (1998); Perez, D., and White, E. Mol. Cell 6: 53-63 (2000)). The term “Western blot” refers to a method for identifying proteins in a complex mixture; proteins are separated electrophoretically in a gel medium; transferred from the gel to a protein binding sheet or membrane; and the sheet or membrane containing the separated proteins exposed to specific antibodies which bind to, locate, and enable visualization of protein(s) of interest. T-Rex-293 (mazF/pcDNA3) and T-Rex-293 (mazF/mazE) cells were harvested at 0, 24, 48 and 72 hr post-treatment with tetracycline or staurosporine by scraping and centrifugation. All cell pellets were lysed in 2× Laemmli buffer. Cell lysates were subjected to electrophoresis on a 15% SDS-PAGE gel and then transferred onto an Immobilon-P membrane (Millipore, Bedford, Mass.). The blot was incubated with following antibody: anti-active caspase-3 rabbit polyclonal antibody (Cell Signaling Technology, Beverly, Mass.), anti-BAX, anti-BAK rabbit polyclonal antibody (NT) (Upstate Biotechnology Inc., Lake Placid, N.Y.), anti-BID goat polyclonal antibody (R&D Systems, Inc, Minneapolis, Minn.), anti-Bim rabbit polyclonal antibody (Alexis Biochemical, San Diego, Calif.), anti-BCL-2 hamster monoclonal antibody (PharMingen, San Diego, Calif.), anti-BCL-XL mouse monoclonal antibody (Trevigen, Gaithersburg, Md.), anti-MCL-1 rabbit polyclonal antibody (Stressgen Biotechnologies, Victoria, British Columbia, Canada), anti-PARP mouse monoclonal antibody (PharMingen, San Diego, Calif.), anti-PUMA rabbit polyclonal antibody (Nelson, D. A., et al., Genes Dev. 18: 2095-2107 (2004)), anti-E1A monoclonal antibody; anti-actin monoclonal antibody (Oncogene Research Products); and anti-Xpress monoclonal antibody (Invitrogen). An antibody directed to human NBK/BIK was generated by expression of a GST-tagged human NBK/BIK fusion protein encoding an N-terminal 78-amino acid region in bacteria and immunization of rabbits (Cocalico). Western Blots were developed with horseradish peroxidase-conjugated secondary antibodies using the ECL system (Amersham-Pharmacia Biotech, Piscataway, N.J.).

BCL-2 family proteins = test: Western blot of BCL-2 family proteins in T-Rex-293 lysates; format: cell-based, human
Experimental: Western blot analysis and immunofluorescence were performed as previously described (Perez, D., and White, E. J. Cell Biol. 141: 1255-1266 (1998); Perez, D., and White, E. Mol. Cell 6: 53-63 (2000)). The term “Western blot” refers to a method for identifying proteins in a complex mixture; proteins are separated electrophoretically in a gel medium; transferred from the gel to a protein binding sheet or membrane; and the sheet or membrane containing the separated proteins exposed to specific antibodies which bind to, locate, and enable visualization of protein(s) of interest. T-Rex-293 (mazF/pcDNA3) and T-Rex-293 (mazF/mazE) cells were harvested at 0, 24, 48 and 72 hr post-treatment with tetracycline or staurosporine by scraping and centrifugation. All cell pellets were lysed in 2× Laemmli buffer. Cell lysates were subjected to electrophoresis on a 15% SDS-PAGE gel and then transferred onto an Immobilon-P membrane (Millipore, Bedford, Mass.). […]

[1] = tested on: activated caspase-3 in iBMK cells; test: immunofluorescence of activated caspase-3 in iBMK cells; format: cell-based, mouse
Experimental: W2, D3, X2 and K1 cells co-transfected by electroporation with a combination of plasmids pcDNA6/His/lacZ with pcDNA4/TO/mazF or pcDNA3 were grown on glass coverslips for 24 hr and fixed in 100% methanol for 10 min at −20° C. After blocking in 1% BSA-PBS for 1 hr at 37° C., cells on coverslips were incubated with anti-active caspase-3 rabbit polyclonal antibody and anti-Xpress mouse monoclonal antibody (Invitrogen, Carlsbad, Calif.) for 1 hr at 37° C. followed by incubation with rhodamine-conjugated anti-rabbit IgG and FITC-conjugated anti-mouse IgG antibody for 1 hr at 37° C. Staining was visualized by a Nikon FXA microscope equipped with epifluorescence optics (Nikon Inc., Garden City, N.Y.). The percentage of cells positive for active caspase-3 was determined by scoring 50-100 cells on each coverslip.

T-Rex-293 cells = test: 35S-methionine metabolic labeling (protein synthesis); format: cell-based, human
Experimental: T-Rex-293 (mazF/pcDNA3) and T-Rex-293 (mazF/mazE) cells were incubated for 0, 24 and 48 hr in tetracycline-containing complete DMEM followed by incubation for 1 hr in fresh methionine-free DMEM containing 10 μCi/ml ^35S-methionine. The cells then were washed with PBS twice and lysed in 2× Laemmli buffer. The cell lysate was subjected to SDS-PAGE followed by autoradiography and coomassie blue stain. Signal intensity was measured by Phosphoimager STORM 860 (Molecular Dynamics, Sunnyvale, Calif.).

MazF: E. coli toxin; sequence specific endoribonuclease (mRNA interferase) cleaving single-stranded RNAs at ACA sequences; expressed from plasmid pcDNA4/TO/mazF
cleaved PARP (Western blot) (caspase-3, PARP; T-Rex-293 (mazF/pcDNA3) treated with Tet for 48 hours): detected | cleaved PARP levels (Western blot) (caspase-3, PARP; T-Rex-293 (mazF/pcDNA3), 72 hours post-induction of MazF): further increased | processed active caspase-3 (Western blot) (caspase-3, PARP; extracts from T-Rex-293 (mazF/pcDNA3) cells treated with Tet): presence of the processed active form of caspase-3 | levels of BCL-2 family proteins (Western blot) (BCL-2 family proteins; T-Rex-293, MazF induction 0-72 hours): remained unchanged | truncated BID (tBID) (Western blot) (BCL-2 family proteins; T-Rex-293, during MazF-induced apoptosis): undetectable | cells with activated caspase-3 ([1]; D3 and K1 cells transiently expressing MazF): < 0.1% | active-caspase-3 positive cells ([1]; W2 cells transiently expressing MazF): 58.1% | active-caspase-3 positive cells ([1]; X2 cells transiently expressing MazF): 47.2% | total protein levels (Coomassie blue) (T-Rex-293 cells; MazF expressing T-Rex-293 cells, over the 48 hour induction period): remain constant | protein synthesis (35S-methionine incorporation) (T-Rex-293 cells; T-Rex-293 (mazF/pcDNA3), 24 hours post induction of MazF): strikingly inhibited
